Data taken from patent US20210137997A1 (priority 2016, published 2021).
Like-named read-outs stand apart in the source and are kept apart here.

Key:
[1] = test system: acne-associated type IA-2 P. acnes strains; assay type: cell-based, Propionibacterium acnes
Experimental: (§1) P. acnes strains and cultures.
(§2) Extraction, identification, and quantification of extracellular porphyrins. For each strain, porphyrins were extracted using the method described by Kang et al. (Sci Transl Med 7:293ra103 (2015)). Briefly, 500 μL of bacterial culture was extracted in ethyl acetate and acetic acid (4:1, v/v), and solubilized in 1.5M HCl. The absorbance at 405 nm was measured from 200 μL of the soluble phase using a Tecan Genios Spectrophotometer M1000 (Tecan US Inc, Morrisville, N.C.). The standard curve to convert absorbance to concentration was generated using coproporphyrin III standards of known concentration (C654-3, Frontier Sci). Porphyrin levels were measured in P. acnes strain KPA171202 using the quantification method described by Wollenberg et al. (MBio 5:e01286-01214 (2014)). […] Porphyrins were extracted from cultures at stationary phase. […] Bacterial culture density was measured at OD595 for normalization of porphyrin levels. For mass spectrometry experiments, extracted porphyrins were directly injected onto an Agilent 6460 Triple Quad LC/MS system and each strain's m/z in the negative ion mode was identified.
(§3) Statistical analysis for porphyrin production comparisons. The average amount of porphyrins produced by each strain under each culture condition was calculated based on the data from at least three independent experiments, with at least three replicates for each. The porphyrin levels between strains, groups (acne-associated vs. health-associated), and culture conditions (with treatment vs. without treatment) were estimated in a linear mixed effect model, with random intercepts by trial to account for trial effects. P-values for specific comparisons among groups were corrected using Tukey's method. All statistical analysis was performed using R software (version 3.1.3).
(§4) To investigate whether different P. acnes strains produce the same porphyrin species, the types of porphyrins secreted by multiple P. acnes strains where characterized using mass spectrometry. Four acne-associated type IA-2 strains, HL053PA1 (RT4), HL045PA1 (RT4), HL043PA1 (RT5), and HL043PA2 (RT5), and three health-associated type II strains, HL001PA1 (RT2), HL103PA1 (RT2), and HL042PA3 (RT6), were examined (Table 1). No difference in the porphyrin species produced by these P. acnes strains was observed. Coproporphyrin III was the dominant porphyrin isomer produced by all strains ([M+H]^+=655.3). Minimal amounts of coproporphyrin I were also detected. Porphyrin levels are measured with the following method. Bacterial cells are collected, and porphyrins are extracted. The concentration of porphyrins is measured spectrophotometrically and normalized to the optical density (also measured spectrophotometrically). Porphyrin levels are therefore measured per bacterial unit.

[2] = test system: health-associated type II P. acnes strains; experiment: Extracellular porphyrin production in culture, health-associated type II strains; assay type: cell-based, Propionibacterium acnes
Experimental: as §1, §2, §3, §4

P. acnes strains = assay type: cell-based, Propionibacterium acnes
Experimental: Common to most of the RT4 and RT5 strains, these strains harbor mutations in their 16S and 23S rRNA genes, which confer antibiotic resistance. […] To confirm the findings, an additional three type II strains, HL110PA3, HL106PA1, and HL050PA2, were also tested. […] For each experiment, 5 mL of reinforced clostridial broth was inoculated with 5×10^5 P. acnes cells per mL of culture. Cultures were grown to stationary phase anaerobically at 37° C. in a light-protected box. Cultures were supplemented on day 0 with vitamin B12 (10 μg/mL), 5-ALA (0.1 mg/mL), and/or LA (0.1 mg/mL). As controls, P. acnes strains were also cultured without supplementation. Three to five independent experiments with at least three replicates per experiment were performed for each strain, except strains HL110PA3, HL106PA1, and HL050PA2, which were tested in only one experiment with three replicates.
Extraction, identification, and quantification of extracellular porphyrins. For each strain, porphyrins were extracted using the method described by Kang et al. (Sci Transl Med 7:293ra103 (2015)). Briefly, 500 μL of bacterial culture was extracted in ethyl acetate and acetic acid (4:1, v/v), and solubilized in 1.5M HCl. The absorbance at 405 nm was measured from 200 μL of the soluble phase using a Tecan Genios Spectrophotometer M1000 (Tecan US Inc, Morrisville, N.C.). The standard curve to convert absorbance to concentration was generated using coproporphyrin III standards of known concentration (C654-3, Frontier Sci). Porphyrin levels were measured in P. acnes strain KPA171202 using the quantification method described by Wollenberg et al. (MBio 5:e01286-01214 (2014)). […] Porphyrins were extracted from cultures at stationary phase. […] Bacterial culture density was measured at OD595 for normalization of porphyrin levels. […]

P. acnes = conditions: 0.1 mg/mL LA (range 0.1 to 1.0 mg/mL assessed)
From the text: P. acnes strains and cultures. […] Four RT4 and RT5 P. acnes strains, HL053PA1, HL045PA1, HL043PA1, and HL043PA2, were selected to represent type IA-2 strains, which were associated with the disease based on a 16S metagenomic study (J Invest Dermatol 133:2152-2160 (2013)). […] Three RT2 and RT6 strains, HL001PA1, HL103PA1, and HL042PA3, were selected to represent type II strains that were associated with healthy skin. To confirm the findings, an additional three type II strains, HL110PA3, HL106PA1, and HL050PA2, were also tested. […] For each experiment, 5 mL of reinforced clostridial broth was inoculated with 5×10^5 P. acnes cells per mL of culture. Cultures were grown to stationary phase anaerobically at 37° C. in a light-protected box. Cultures were supplemented on day 0 with vitamin B12 (10 μg/mL), 5-ALA (0.1 mg/mL), and/or LA (0.1 mg/mL). As controls, P. acnes strains were also cultured without supplementation. Three to five independent experiments with at least three replicates per experiment were performed for each strain, except strains HL110PA3, HL106PA1, and HL050PA2, which were tested in only one experiment with three replicates.

P. acnes strain HL025PA1 = experiment: Extracellular porphyrin production in culture, type I strain with deoR; assay type: cell-based, Propionibacterium acnes; conditions: 10 μg/mL vitamin B12
Experimental: as §1
as §2, with “For mass spectrometry experiments, extracted porphyrins were directly injected onto an Agilent 6460 Triple Quad LC/MS system and each strain's m/z in the negative ion mode was identified.” left out
Statistical analysis for porphyrin production comparisons. The average amount of porphyrins produced by each strain under each culture condition was calculated based on the data from at least three independent experiments, with at least three replicates for each. […]

[3] = test system: cbiL (vitamin B12 biosynthesis gene) in acne-associated type IA-2 strains; experiment: cbiL gene expression by qRT-PCR, type IA-2 strains; assay type: cell-based, Propionibacterium acnes; conditions: 10 μg/mL vitamin B12 vs without, normalized to 16S rRNA
Experimental: (§5) RNA extraction and cDNA synthesis. For cbiL and deoR gene expression analysis, cells were lysed with bead beating. Total RNA was extracted using the standard phenol-chloroform method and purified using RNeasy kit (Qiagen). DNA was removed using the Turbo DNA-free kit (Life Technologies). RNA quality was assessed using gel electrophoresis. Single-stranded complementary DNA (cDNA) was synthesized using SuperScript III First-Strand Synthesis SuperMix (Life Technologies).
(§6) Analysis of cbiL gene expression. qRT-PCR was performed using the LightCycler 480 High Resolution Melting Master Mix (Roche) on a LightCycler 480 (Roche) with the following primers: cbiL-forward, 5′-[…]-3′ (SEQ ID NO: 1), and cbiL-reverse, 5′-[…]-3′ (SEQ ID NO: 2). The following qRT-PCR protocol was used: initial denaturation at 95° C. for 5 min, followed by 50 cycles of 95° C. for 10 sec, 62° C. for 30 sec, and 72° C. for 30 sec. The fold change in cbiL gene expression between cultures with vitamin B12 supplementation and cultures without supplementation was calculated. The gene expression level of cbiL in each sample was normalized against the 16S rRNA transcript level. Melting curve analysis was performed using the Light Cycler 480 software Version 1.5 (Roche) to verify the specificity of the amplified products based on their melting temperatures. All reactions were run in triplicate.

[4] = test system: cbiL (vitamin B12 biosynthesis gene) in health-associated type II strains; experiment: cbiL gene expression by qRT-PCR, type II strains; assay type: cell-based, Propionibacterium acnes; conditions: 10 μg/mL vitamin B12 vs without, normalized to 16S rRNA
Experimental: as §5, §6

[5] = test system: cbiL (vitamin B12 biosynthesis gene) in HL025PA1; experiment: cbiL gene expression by qRT-PCR, HL025PA1; assay type: cell-based, Propionibacterium acnes; conditions: 10 μg/mL vitamin B12
Experimental: as §5, §6

NCC(=O)CCC(=O)O [5-ALA, 5-aminolevulinic acid]
average fold increase in porphyrin production ([1]; 0.1 mg/mL 5-ALA only vs untreated controls, P<0.0001): 2.2 fold
average fold increase in porphyrin production ([2]; 0.1 mg/mL 5-ALA only vs untreated controls, P≤0.06 except HL001PA1): 3.4 fold

CC(=O)CCC(=O)O [LA, levulinic acid]
reduction of porphyrins by LA in combination with vitamin B12 [1]: no significant reduction of porphyrins
average reduction of porphyrin production compared to untreated cultures (P. acnes strains): 30%
effect on bacterial growth (P. acnes): did not significantly affect the bacterial growth

vitamin B12
average porphyrin level with vitamin B12 supplementation ([1]; 10 μg/mL vitamin B12, increasing from 6.5 μM without): 9.2 µM
fold increase in porphyrin production compared to substrate only ([1]; 10 μg/mL vitamin B12 in combination with 0.1 mg/mL 5-ALA): 2.7 fold
average porphyrin level with vitamin B12 supplementation ([2]; 10 μg/mL vitamin B12, 1.1 μM without, P≥0.77): 1.1 µM
further enhancement of porphyrin production compared to substrate only ([2]; 10 μg/mL vitamin B12 in combination with 0.1 mg/mL 5-ALA, P≥0.94): not in health-associated type II strains
counteraction by vitamin B12 of the inhibition of porphyrin biosynthesis by LA ([2]; 0.1 mg/mL LA with 10 μg/mL vitamin B12): not in health-associated type II strains
effect of vitamin B12 on porphyrin production level ([2]; strains HL110PA3, HL106PA1, HL050PA2, 10 μg/mL): not significantly affected
effect of vitamin B12 on porphyrin production (P. acnes strain HL025PA1): unaffected
response of porphyrin production to vitamin B12 supplementation (P. acnes strains; type I strains, FIG. 12): increased porphyrin production
response of porphyrin production to vitamin B12 supplementation (P. acnes strains; type II and type III strains, data not shown): not observed
average fold change of cbiL gene expression [3]: 0.74 fold
average fold change of cbiL gene expression [4]: 0.24 fold
effect on vitamin B12 biosynthesis gene expression [5]: transcriptional repression
